The record followed here is patent US5359138A (Zaidan Hojin Biseibutsu Kagaku Kenkyu KaI, priority 1989, dated 1994).

Entries after “also recorded” stand apart in the source; their conditions may differ. Starred links: 1 amine or outer side, 2 acyl side, 3 side chain; linkers in the order of their positions; H or OH if unused. Non-standard residues stand in square brackets, D forms with d. Residues, ends and D or L forms follow the SMILES beside them. ξ: configuration not given here. *: point of attachment. ξ(3-Amino-2-oxopentanoyl) = CCC(N[*:1])C(=O)C(=O)[*:2]; Abu(ψCOCO) = CC[C@H](N[*:1])C(=O)C(=O)[*:2]; Butanoyl(4-Ph) = O=C(CCCc1ccccc1)*; Cbz = O=C(OCc1ccccc1)*; OBn = c1ccc(CO*)cc1

For data set [1], the target named is T1, prolylendopeptidase (Sus scrofa, UniProt P23687).
T1 construct: a pig kidney sample was subjected to a fractionation operation with ammonium sulfate; from tissue; host or cells: pig kidney
The experiment in a line: Determination of anti-prolylendopeptidase activity. In kind it is biochemical, pig. Conditions: for PPCE = Propylendopeptidase inhibition activity, IC50: pig kidney enzyme, substrate Z-Gly-Pro-beta-naphthylamide, 37° C., 30 minutes, pH 7.8. Here is the method:
The determination of anti-prolylendopeptidase activity was conducted by a modified method based on the method by Yoshimoto et al (Biochim. Biophys. Acta, vol. 569, pages 184-192 (1979)).
A test tube was charged with a solution mixture consisting of (a) 0.2 ml of a solution of 0.5 mM N-benzyloxycarbonyl-L-glycyl-L-prolyl-beta-naphthylamide in 40% dioxane; (b) 0.5 ml of a 0.05M Tris-HCl buffer solution (pH 7.8); and (c) 0.25 ml of an aqueous solution containing the test material. The solution mixture was heated to 37° C. for 3 minutes, and admixed with 0.05 ml of a prolylendopeptidase solution to effect a reaction at 37° C. for 30 minutes. The prolylendopeptidase employed was that which had been obtained according to a modified method based on the enzyme purification method by Koida, Walter et al. (J. Biol. Chem. Vol. 251, pages 7593-7599 (1976), wherein a pig kidney sample was subjected to a fractionation operation with ammonium sulfate, and wherein a purification was effected by a column chromatography employing a DEAE-Sephadex A-50 column.
After the completion of the reaction, the reaction mixture was admixed with 1 ml of a 1M sodium acetate buffer solution containing 10% of Tween-20 and 0.1% of Fast Garnet GBC salt. The reaction mixture was allowed to stand at room temperature for 15 minutes, and then measured for the light absorption at 525 nm (a). At the same time, a control sample, which was free of the test compounds and contained only the buffer solution, was measured for the light absorption (b).
The prolylendopeptidase inhibition activity was determined by employing the formula: […]

Data set [2] concerns the target cathepsin B (Homo sapiens, UniProt P07858). Description: Cathepsin B inhibition activity (method by Knight). It counts as biochemical. Here is the method: The elastase inhibition activity was determined according to a method by Mumford, R. A. et al (J. Biol. Chem., 225, 2227 (1980)). The cathepsin B inhibition activity was determined according to a method by Knight, C. G. (Biochem. J., 189, 447-453 (1980)).

For data set [3], the system named is mice. Description: Toxicity, LD50 (i.v.) in mice. It counts as in vivo. Here is the method: The compounds according to the invention have a low toxicity. In the case of mice, LD50 (i.v.) of poststatin is at least 200 mg/kg. Therefore, it can be expected that the compounds according to the invention will be useful, for instance, as a drug for treating amnesia and autoimmune diseases including systemic erythematosus and the like.

Data set [4] in a line: Solubility of poststatin. It counts as physicochemical. Conditions: solvents as named; listed as poststatin.

T1 sequence (P23687 whole entry): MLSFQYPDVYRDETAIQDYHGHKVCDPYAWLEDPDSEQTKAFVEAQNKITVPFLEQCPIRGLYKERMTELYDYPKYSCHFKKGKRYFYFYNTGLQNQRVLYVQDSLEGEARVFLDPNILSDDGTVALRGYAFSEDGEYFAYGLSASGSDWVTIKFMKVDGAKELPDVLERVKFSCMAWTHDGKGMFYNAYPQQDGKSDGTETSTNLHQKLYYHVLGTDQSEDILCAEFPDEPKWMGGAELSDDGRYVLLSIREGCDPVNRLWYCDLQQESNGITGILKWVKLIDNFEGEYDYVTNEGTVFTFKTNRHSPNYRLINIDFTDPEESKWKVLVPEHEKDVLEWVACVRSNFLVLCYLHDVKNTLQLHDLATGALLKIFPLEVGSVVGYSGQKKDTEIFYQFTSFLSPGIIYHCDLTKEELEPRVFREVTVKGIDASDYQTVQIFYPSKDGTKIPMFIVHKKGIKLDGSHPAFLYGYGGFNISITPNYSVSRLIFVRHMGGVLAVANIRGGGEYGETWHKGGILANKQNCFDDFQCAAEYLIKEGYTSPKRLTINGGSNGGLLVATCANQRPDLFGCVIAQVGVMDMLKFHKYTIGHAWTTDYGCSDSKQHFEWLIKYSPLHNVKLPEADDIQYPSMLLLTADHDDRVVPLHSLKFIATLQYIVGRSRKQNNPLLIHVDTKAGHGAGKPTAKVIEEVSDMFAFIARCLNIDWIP

`CCC(NC(=O)[C@H](Cc1ccccc1)NC(=O)OCc1ccccc1)C(=O)C(=O)N[C@H](CC(C)C)C(=O)N[C@H](C(=O)OC(C)(C)C)C(C)C` (mixture of isomers) [Compound 3, Z-L-phenylalanyl-(RS)-3-amino-2-oxopentanoyl-D-leucyl-L-valine t-butyl ester]: in data set [1], the “PPCE = Propylendopeptidase inhibition activity, IC50” value came to 0.11 µg/mL. Further, in data set [2], the “CatB = Cathepsin B inhibition activity, IC50” value was more than 100 µg/mL.
The corresponding values for `CCC(NC(=O)[C@H](Cc1ccccc1)NC(=O)OCc1ccccc1)C(=O)C(=O)N[C@H](CC(C)C)C(=O)N[C@H](C(=O)O)C(C)C` (mixture of isomers) [Compound 4, Z-L-phenylalanyl-(RS)-3-amino-2-oxopentanoyl-D-leucyl-L-valine] are 0.007 µg/mL and 0.64 µg/mL.
Consider `CCC(NC(=O)[C@@H](NC(=O)OC(C)(C)C)C(C)C)C(=O)C(=O)N[C@H](CC(C)C)C(=O)OC(C)(C)C` (mixture of isomers) [Compound 5, BOC-L-valyl-(RS)-3-amino-2-oxopentanoyl-D-leucyl t-butyl ester], for which the “PPCE = Propylendopeptidase inhibition activity, IC50” value in data set [1] was determined as 0.04 µg/mL. In data set [2], the “CatB = Cathepsin B inhibition activity, IC50” value was determined as 2.2 µg/mL.
Regarding `CC[C@H](NC(=O)[C@@H](NC(=O)[C@@H](N)C(C)C)C(C)C)C(=O)C(=O)N[C@H](CC(C)C)C(=O)N[C@H](C(=O)O)C(C)C` [Compound 1, L-valyl-L-valyl-(3S)-3-amino-2-oxo-pentanoyl-D-leucyl-L-valyl] (H-VV[Abu(ψCOCO)][dL]V-OH), the “PPCE = Propylendopeptidase inhibition activity, IC50” value in data set [1] was 0.03 µg/mL. In addition, in data set [2], the “CatB = Cathepsin B inhibition activity, IC50” value came to 2.1 µg/mL. In addition, in data set [3], the “LD50 (i.v.)” value is given as “at least 200 mg/kg”. Moreover, the Solubility entry in data set [4] was “soluble in water, methanol, and dimethyl sulfoxide; also recorded: insoluble in acetone, ethyl acetate, chloroform and hexane”.
Take `CC[C@H](NC(=O)[C@@H](NC(=O)[C@@H](NC(=O)OCc1ccccc1)C(C)C)C(C)C)C(=O)C(=O)N[C@H](CC(C)C)C(=O)N[C@H](C(=O)OCc1ccccc1)C(C)C` [Compound 2, Z-L-valyl-L-valyl-(3S)-3-amino-2-oxo-pentanoyl-D-leucyl-L-valine benzyl ester] (Cbz-VV[Abu(ψCOCO)][dL]V-OBn): the “PPCE = Propylendopeptidase inhibition activity, IC50” value in data set [1] was determined as 1 µg/mL. In data set [2], the “CatB = Cathepsin B inhibition activity, IC50” value amounted to 100 µg/mL.
What is called IC50 is the concentration at which inhibition is half-maximal. `CCC(NC(=O)[C@@H]1CCCN1C(=O)[C@@H](N)C(C)C)C(=O)C(=O)N[C@H](CC(C)C)C(=O)N[C@H](C(=O)O)C(C)C` (stereo partly shown) [Compound 6]: the concentration for half-maximal inhibition (IC50) in data set [1] is 556 nM; in data set [2] (read-out: CatB = Cathepsin B inhibition activity, IC50), more than 185000 nM.
Regarding `CCC(NC(=O)[C@@H]1CCCN1C(=O)[C@@H](NC(=O)CCCc1ccccc1)C(C)C)C(=O)C(=O)N[C@H](CC(C)C)C(=O)N[C@H](C(=O)O)C(C)C` (stereo partly drawn) [Compound 7, phenylbutanoyl-L-valyl-L-propyl-3-amino-2-oxopentanoyl-D-leucyl-L-valine] ({Butanoyl(4-Ph)}-VP[ξ(3-Amino-2-oxopentanoyl)][dL]V-OH), in data set [1], the “PPCE = Propylendopeptidase inhibition activity, IC50” value was found to be 0.17 µg/mL. In data set [2], the “CatB = Cathepsin B inhibition activity, IC50” value is 72 µg/mL.
